# Reference: US9890176B2, “Mannose derivatives for treating bacterial infections” (Vertex Pharmaceuticals Incorporated, priority 2013, dated 2018)
# Legend:
# [1] = Mouse Feces Stability Assay; type: in vitro ADME; details: 100 uM in mouse feces supernatant, pH 6.5, 37° C.
# Procedure: The mouse feces stability assay can be used to measure the stability of FimH antagonists in an environment that mimics the gut. Fresh mouse feces samples from a number of animals (at least 4) are homogenized with 10 volumes (w/v) of 100 mM potassium phosphate buffer (pH 6.5) using a Stomacher device. The feces mixture is then centrifuged 5 min at 2000 g and the supernatant is collected for incubation. Compounds to be tested are spiked at 100 uM in the feces supernatant and incubated at 37° C. up to 6 hours. The enzymatic reaction is stopped by adding 9 volumes of acetonitrile containing 0.1% formic acid and an internal standard. The mixture is centrifuged and the supernatants are analyzed by HPLC-MS/MS to assess percentage of parent remaining relative to a control sample.
# [2] = Human Feces Stability Assay; type: in vitro ADME; details: 100 uM in human feces supernatant (3 donors), pH 6.5, 37° C.
# Procedure: The human feces stability assay ca be used to measure the stability of FimH antagonists in an environment that mimics the gut. Fresh human feces samples from 3 donors are homogenized with 10 volumes (w/v) of 100 mM potassium phosphate buffer (pH 6.5) using a Stomacher device. The feces mixture is then centrifuged 5 min at 2000 g and supernatant is collected for incubations. Compounds to be tested are spiked at 100 uM in feces supernatant and incubated at 37° C. up to 24 hours. The enzymatic reaction is stopped by adding 9 volumes of acetonitrile containing 0.1% formic acid and internal standard. The mixture is centrifuged and the supernatants are analysed by HPLC-MS/MS to assess percentage of parent remaining relative to a control sample.
# [3] = Mouse Excretion Study Following FimH Antagonist Oral Dosing; type: in vivo; details: 10 mg/kg orally, collection up to 72 h
# Procedure: Mice are dosed 10 mg/kg orally (10 mL/kg; 0.5% methocel) with FimH antagonists and urine and feces are collected on ice up to 72 h in excretion cages. Post-collection, feces samples are diluted with 10 volumes of water and homogenized using a Stomacher device. Feces mixture and urine samples are then quenched with acetonitrile containing an internal standard, centrifuged, and the supernatants are then diluted with 1 volume of water prior to analysis by HPLC-MS/MS in SRM mode.
# [4] = target: T1, carbohydrate recognition domain of the protein FimH (M1-T179) (Escherichia coli, UniProt P08191); assay: Thermal Shift Assay; type: binding, E. coli; details: 5.6 μM protein, 56 μM ligand; DMSO control as reference; ± standard error of the mean (number of repeats)
# T1 construct: domain of the protein FimH (M1-T179) with an uncleavable C-terminus 6-His tag; made in house; host or cells: E. coli (pET21b plasmid)
# Procedure: The carbohydrate recognition domain of the protein FimH (M1-T179) with an uncleavable C-terminus 6-His tag is cloned in a pET21b plasmid and expressed in E. coli and purified to homogeneity. The thermal stabilization of the protein upon ligand binding is measured in a 96-well format on a ViiA™ 7 (Life Technologies, Carlsbad, Calif.) RT-PCR instrument. The assay is conducted in duplicate in 20 mM Tris pH 7.4 and 150 mM NaCl at a final concentration of 5.6 μM and 56 μM for protein and ligand, respectively. An environmentally-sensitive dye (Applied Biosystems Protein Thermal Shift™ Dye (P/N 4461141)) is added to each well to a final ratio of 1:1000. Plates are spun at 1000×g for 1 minute and incubated at room temperature for 10 minutes. Thermal stability of protein with and without ligand is measured from 45° C. to 85° C. at a scan rate of 0.05° C./sec. The resulting data is analyzed using Protein Thermal Shift™ Software (version 1.1) with DMSO control used as reference.
# [5] = tested on: bacterial strain LF82 binding to the glycoprotein BSA-(Mannose)3; assay: Bacterial Binding Assay (BBA); type: cell-based, Escherichia coli; details: read-out: Bacterial Binding Assay IC50
# Outline: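 Luciferase-tagged E. coli LF82 grown overnight at 37° C without shaking, then added at 2×10^8 bacteria/mL (10^7 per well) to wells coated with 0.5-2 μg/mL BSA-(Man)3 and blocked with 2% BSA. Compound in 0.2% BSA/D-PBS; binding 40-75 min at room temperature. Washed; bound bacteria read by luciferase luminescence; IC50.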
# T1 sequence (P08191 22-179 limits assumed): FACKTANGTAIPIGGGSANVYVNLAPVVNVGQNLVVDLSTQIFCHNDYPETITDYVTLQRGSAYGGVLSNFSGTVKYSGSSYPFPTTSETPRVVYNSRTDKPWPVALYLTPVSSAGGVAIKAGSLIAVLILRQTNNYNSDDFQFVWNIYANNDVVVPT
In vitro human feces stability - % Parent remaining at 24 h [2] [%],% Oral dose recovered intact in mice feces [3] [%],% Oral dose recovered intact in mice urine [3] [%],Compound,In vitro mice feces stability - % Parent remaining at 6 h [1] [%],Delta Thermal melt [4],IC50 [5] [nM]
35,8.4,0.20,CNC(=O)c1cccc(-c2ccc(O[C@H]3O[C@H](CO)[C@@H](O)[C@H](O)[C@@H]3O)c(C)c2)c1 [A],0,,
,,,"Cc1cc(-c2cccc([N+](=O)[O-])c2)ccc1O[C@H]1O[C@H](CO)[C@@H](O)[C@H](O)[C@@H]1F [Example 2, (2R,3S,4S,5S,6R)-5-fluoro-2-(hydroxymethyl)-6-((3-methyl-3′-nitro-[1,1′-biphenyl]-4-yl)oxy)tetrahydro-2H-pyran-3,4-diol]",,6.01 (1) ° C.,1150 ± 350
,,,"CNC(=O)c1cccc(-c2ccc(O[C@H]3O[C@H](CO)[C@@H](O)[C@H](O)[C@@H]3F)c(C(F)(F)F)c2)c1 [Example 4, 3-[4-[(2R,3S,4S,5S,6R)-3-fluoro-4,5-dihydroxy-6-(hydroxymethyl)tetrahydropyran-2-yl]oxy-3-(trifluoromethyl)phenyl]-N-methyl-benzamide]",108,5.6 (1) ° C.,470 ± 32
,,,"CNC(=O)c1cccc(-c2ccc(O[C@H]3O[C@H](CO)[C@@H](O)[C@H](O)[C@@H]3F)c(C)c2)c1 [Example 6, 3-[4-[(2R,3S,4S,5S,6R)-3-fluoro-4,5-dihydroxy-6-(hydroxymethyl)tetrahydropyran-2-yl]oxy-3-methyl-phenyl]-N-methyl-benzamide]",108,4.905 ± 0.195 (2) ° C.,750 ± 141
,,,"CNC(=O)c1cccc(-c2ccc(O[C@H]3O[C@H](CO)[C@@H](O)[C@H](O)[C@@H]3F)cc2)c1 [Example 7, 3-[4-[(2R,3S,4S,5S,6R)-3-fluoro-4,5-dihydroxy-6-(hydroxymethyl)tetrahydropyran-2-yl]oxyphenyl]-N-methyl-benzamide]",,3.86 ± 0.09 (2) ° C.,8620 ± 1300
,,,"CNC(=O)c1cccc(-c2ccc(O[C@H]3O[C@H](CO)[C@@H](O)[C@H](O)[C@@H]3F)c(OC)c2)c1 [Example 8, 3-[4-[(2R,3S,4S,5S,6R)-3-fluoro-4,5-dihydroxy-6-(hydroxymethyl)tetrahydropyran-2-yl]oxy-3-methoxy-phenyl]-N-methyl-benzamide]",,4 (1) ° C.,5400 ± 200
,,,"CNC(=O)c1cccc(-c2ccc(O[C@H]3O[C@H](CO)[C@@H](O)[C@H](F)[C@@H]3O)cc2)c1 [Example 11, 4′-(((2R,3R,4S,5R,6R)-4-fluoro-3,5-dihydroxy-6-(hydroxymethyl)tetrahydro-2H-pyran-2-yl)oxy)-N-methyl-[1,1′-biphenyl]-3-carboxamide]",,2.6 (1) ° C.,14000
,,,"CNC(=O)c1cccc(-c2ccc(O[C@H]3O[C@H](CF)[C@@H](O)[C@H](O)[C@@H]3O)cc2)c1 [Example 12, 4′-(((2R,3S,4S,5S,6S)-6-(fluoromethyl)-3,4,5-trihydroxytetrahydro-2H-pyran-2-yl)oxy)-N-methyl-[1,1′-biphenyl]-3-carboxamide]",118,0.06 ± 0.11 (2) ° C.,
,,,"CNC(=O)c1cccc(-c2ccc(O[C@H]3O[C@H](CO)[C@@H](O)[C@H](O)[C@]3(C)O)c(C)c2)c1 [Example 13, N,3′-dimethyl-4′-(((2R,3S,4S,5S,6R)-3,4,5-trihydroxy-6-(hydroxymethyl)-3-methyltetrahydro-2H-pyran-2-yl)oxy)-[1,1′-biphenyl]-3-carboxamide]",,10.71 ± 0 (2) ° C.,15 ± 2
